Assay: Water solubility
Format: physicochemical
Conditions: deionized water, pH 7, room temperature
Experimental: [drawing 6] 2,3-dihydroxyterephthalic acid dimethyl ester (12.89 g, 57 mmol) from step a) was suspended in N,N-dimethylethylenediamine (72.8 g, 809 mmol) and the reaction mixture was stirred for 24 hours at 100° C. After adding 100 ml of dimethylformamide (DMF), the excess of N,N-dimethylethylenediamine, together with the DMF, was removed by distillation. The solid obtained was washed 2 times using 300 ml of ethyl acetate, subsequently recrystallized from methanol/ethyl acetate (1:2.5) and dried in a vacuum. 9.6 g of 2,3-dihydroxy-N,N′-bis(2-(dimethylamino)ethyl)terephthaldiamide was obtained as a beige solid. The water solubility thereof (deionized water, pH 7, room temperature) was over 70 g/l.

## CN(C)CCNC(=O)c1ccc(C(=O)NCCN(C)C)c(O)c1O [S1, 2,3-dihydroxy-N,N′-bis(2-(dimethylamino)ethyl) terephthaldiamide]
  solubility: > 70 mg/mL

Source: patent publication US10876076B2, “Detergents and cleaning agents having improved performance” (Henkel AG & Co. KGaA, priority 2016, dated 2020)
